Laboratory results reported in patent publication US10407467B2, “Polymyxin derivatives and their use in combination therapy together with different antibiotics” (priority 2013, dated 2019).
Read-outs that look alike come from different tables or passages of the source. Marks after values point to notes of the source that are not given here. Bridge positions count the residues as written; N and C are the ends. Square brackets hold non-standard residues; d marks the D form. Peptide text beside a SMILES is read from it. * marks the point of attachment. ξ: configuration not given here. ξβ3hGly(cHex) = NC(CC(=O)*)C1CCCCC1; Thr(3ξ) = CC(O)[C@H](N)C(=O)O; Dab = NCC[C@H](N)C(=O)O

Key:
[1] = test system: Klebsiella pneumoniae ATCC10031; settings: 10 mg/kg/day, neutropenic mice thigh infection
[2] = rats, 8 mg/kg BID regimen, seven days, compared to Colistin at the same dose regimen
Experimental: After one week acclimatisation, male Sprague-Dawley rats were surgically prepared with a jugular cannula and were housed individually, as required, either in pre-assigned housing cages or metabolic cages. Colistin and the Example Compounds were prepared in saline.
Compounds were introduced via the jugular cannula twice a day 7 hours apart for seven days. Each dose was increased progressively for three days up to the top dose that was then administered until termination of the study. Twenty-four hour urine collection (on ice) was performed at pre-dose and on days 4 and 7. The dose regimen is set out in Table 10 below.
The doses in the table are indicated in mg drug base/kg (free base).
The activity in urine of the N-acetyl-beta-D-glucosaminidase (NAG) was determined spectrophotometrically using the NAG assay kit from Roche Applied Science. Biomarkers of kidney injury were determined using the Kidney Injury Panel II from the Multi-Spot® Assay System (Meso Scale Discovery).

HK-2 cell line = experiment: In vitro renal cell toxicity assay (resazurin reduction); assay type: cell-based, human; settings: HK-2 cells, 24 h, resazurin reduction; mean values of up to 6 independent studies
E. coli ATCC25922 = test system: E. coli ATCC25922
Experimental: Mice were rendered temporarily neutropenic by immunosuppression with cyclophosphamide at 150 mg/kg 4 days before infection and 100 mg/kg 1 day before infection by intraperitoneal injection.
Compounds were administered in solution by intravenous (IV) injection into the lateral tail vein. […] The vehicle control group was treated with vehicle (0.9% saline for injection) also at 10 mL/kg IV thrice at 1, 3.5 and 6 hours post infection.
(§1) At 1 hour post infection, 4 animals were humanely euthanized using pentabarbitone overdose to provide a pre-treatment control group. At 9 hours post infection, the clinical condition of all animals was assessed prior to them being humanely euthanized by pentabarbitone overdose. Animal weight was determined before both thighs were removed and weighed individually. Individual thigh tissue samples were homogenized in ice cold sterile phosphate buffered saline. Thigh homogenates were then quantitatively cultured onto CLED agar and incubated at 37° C. for 24 hours before colonies were counted.

P. aeruginosa ATCC27853 = assay type: in vivo, Pseudomonas aeruginosa; settings: 1:1 with rifampicin at a total dose of 5 mg/kg, IV at 1, 3.5 and 6 hours
Experimental: as §1, with “Compounds were administered in solution by intravenous (IV) bolus injection into the lateral tail vein. […] At 1” for “At 1”

CC(C)C[C@@H]1NC(=O)[C@@H](Cc2ccccc2)NC(=O)[C@H](CCN)NC(=O)[C@@H](NC(=O)[C@H](CCN)NC(=O)[C@@H](NC(=O)CC(N)C2CCCCC2)C(C)O)CCNC(=O)[C@H](C(C)O)NC(=O)[C@H](CCN)NC(=O)[C@H](CCN)NC1=O (stereo partly drawn) [Example 10, [3(R,S)-3-Amino-3-cyclohexane-propanoyl]Polymyxin B nonapeptide] ({ξβ3hGly(cHex)}-[Thr(3ξ)][Dab][Dab][Dab][dF]L[Dab][Dab][Thr(3ξ)]; lactam 3-C)
reduction in bacterial counts [1]: approx. 2 log10
levels of the renal biomarkers NAG, albumin and cystatin C in urine [2]: significantly reduced levels

Polymyxin B [reference compound]
IC50 HK-2 cells (HK-2 cell line): 11^b μg/mL
log reduction in bacterial counts compared to the non-treated control (E. coli ATCC25922; 1:1 combination with Rifampicin at 4 mg/Kg total dose): 4.8 log
Log reduction from vehicle (CFU/g) (E. coli ATCC25922; Table 9, monotherapy 0.125 mg/kg IV at 1, 3.5 and 6 h post infection, 9 h): −0.36 log CFU/g
Log reduction from vehicle (CFU/g) (E. coli ATCC25922; Table 9, monotherapy 0.5 mg/kg IV at 1, 3.5 and 6 h post infection, 9 h): 1.93 log CFU/g
Log reduction from vehicle (CFU/g) (E. coli ATCC25922; Table 12, alone 4 mg/kg (sulfate salt) IV): 3.61 log CFU/g
log reduction in bacterial counts compared to non-treated control (P. aeruginosa ATCC27853): 5.37 log
Log reduction from vehicle (CFU/g) (P. aeruginosa ATCC 27853; Table 14, 1 mg/kg (sulfate salt) IV at 1, 3.5 and 6 h, 9 h): 0.58 log CFU/g
Log reduction from vehicle (CFU/g) (P. aeruginosa ATCC 27853; Table 14, 2 mg/kg (sulfate salt) IV at 1, 3.5 and 6 h, 9 h): 1.67 log CFU/g
Log reduction from vehicle (CFU/g) (P. aeruginosa ATCC 27853; Table 14, 4 mg/kg (sulfate salt) IV at 1, 3.5 and 6 h, 9 h): 5.09 log CFU/g
Log reduction from vehicle (CFU/g) (P. aeruginosa ATCC 27853; Table 15, 1 mg/kg (sulfate salt) IV, 9 h): −0.12 log CFU/g
Log reduction from vehicle (CFU/g) (P. aeruginosa ATCC 27853; Table 15, 2 mg/kg (sulfate salt) IV, 9 h): 1.40 log CFU/g
Log reduction from vehicle (CFU/g) (P. aeruginosa ATCC 27853; Table 15, 4 mg/kg (sulfate salt) IV, 9 h): 3.41 log CFU/g
Log reduction from vehicle (CFU/g) (P. aeruginosa ATCC 27853; Table 16, 0.85 mg/kg free base equivalent, infection level ~1×10^4 CFU/mouse thigh): 1.19 log CFU/g
Log reduction from vehicle (CFU/g) (P. aeruginosa ATCC 27853; Table 16, 3.4 mg/kg free base equivalent, infection level ~1×10^4 CFU/mouse thigh): 4.23 log CFU/g
